Measured values reported in PMC8206213, “An L-2-hydroxyglutarate biosensor based on specific transcriptional regulator LhgR” (Nature Communications, 2021).
Values joined by “and” are separate entries in the source; they are usually repeats but may differ in a detail not shown here. Equal values may be shown once. “Also recorded” adds a separate entry of the source.

Key:
LhgR = experiment: EMSA, effect of compounds on LhgR binding to the lhgO promoter region F1; design: species or system Pseudomonas putida W619; settings: 50 mM compound, 10 nM F1, 60 nM LhgR
Procedure, shortened: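 Purified LhgR was preincubated 15 min at 30 °C with candidate effectors (L-lysine, 5-aminovalerate, glutarate, L-2-HG, D-2-HG, 2-KG, succinate), then 30 min at 30 °C with 10 nM F1 or F2 DNA. Buffer: 10 mM Tris-HCl pH 7.4, 50 mM KCl, 10% glycerol, 1 mM DTT. Shift seen on 6% native PAGE with SYBR green I.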

LHGFR0N3C [1] = experiment: Specificity of purified LHGFR0N3C, emission ratio with 240 μM compounds; assay type: binding, Pseudomonas putida W619; settings: 240 μM compound
LHGFR0N7C [2] = experiment: Specificity of purified LHGFR0N7C, emission ratio with 240 μM compounds; assay type: binding, Pseudomonas putida W619; settings: 240 μM compound
LHGFR0N3C [3] = experiment: Influence of other compounds on the response of purified LHGFR0N3C to L-2-HG; assay type: binding, Pseudomonas putida W619
Procedure, shortened: (§1)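 Purified L-2-HG biosensors were mixed 3:1 with test compounds in 50 mM Tris-HCl pH 7.4, excited at 430 nm, and the 528 nm (Venus)/485 nm (mTFP) emission was read. Responses were fitted with a Hill model giving apparent Kd and Hill slope.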

LHGFR0N7C [4] = experiment: Influence of other compounds on the response of purified LHGFR0N7C to L-2-HG; assay type: binding, Pseudomonas putida W619
Procedure, shortened: as §1

SMILES: O=C(O)CC[C@H](O)C(=O)O [L-2-HG, L-2-Hydroxyglutarate]
- Effect on LhgR binding to the lhgO promoter region F1 (LhgR): prevents LhgR binding to the lhgO promoter region; also recorded: release of LhgR from fragments F1 was observed only in the presence of L-2-HG
- Emission ratio (LHGFR0N3C [1]): 2.0582 and 2.052 and 2.059
- Emission ratio (LHGFR0N7C [2]): 2.5923 and 2.613 and 2.627
- Emission ratio of 528/485 (LHGFR0N3C [3]; L-2-HG concentration 0.01, in the absence of 2-KG, Suppl. Fig. 9g): 1.4026 and 1.407 and 1.399
- Emission ratio of 528/485 (LHGFR0N3C [3]; L-2-HG concentration 0.01, in the absence of D-2-HG, Suppl. Fig. 9e): 1.361 and 1.439 and 1.415
- Emission ratio of 528/485 (LHGFR0N3C [3]; L-2-HG concentration 0.01, in the presence of 2-KG, Suppl. Fig. 9g): 1.363
- Emission ratio of 528/485 (LHGFR0N3C [3]; L-2-HG concentration 0.01, in the presence of D-2-HG, Suppl. Fig. 9e): 1.406 and 1.467 and 1.446
- Emission ratio of 528/485 (LHGFR0N3C [3]; L-2-HG concentration 0.1, in the absence of D-2-HG, Suppl. Fig. 9e): 1.367 and 1.431 and 1.424
- Emission ratio of 528/485 (LHGFR0N3C [3]; L-2-HG concentration 0.1, in the presence of D-2-HG, Suppl. Fig. 9e): 1.407 and 1.464 and 1.416
- Emission ratio of 528/485 (LHGFR0N3C [3]; L-2-HG concentration 0.2, in the absence of D-2-HG, Suppl. Fig. 9e): 1.3539 and 1.456 and 1.407
- Emission ratio of 528/485 (LHGFR0N3C [3]; L-2-HG concentration 0.2, in the presence of D-2-HG, Suppl. Fig. 9e): 1.417 and 1.4607 and 1.422
- Emission ratio of 528/485 (LHGFR0N3C [3]; L-2-HG concentration 1, in the absence of D-2-HG, Suppl. Fig. 9e): 1.3919 and 1.421 and 1.443
- Emission ratio of 528/485 (LHGFR0N3C [3]; L-2-HG concentration 1, in the presence of D-2-HG, Suppl. Fig. 9e): 1.445 and 1.477 and 1.4328
- Emission ratio of 528/485 (LHGFR0N3C [3]; L-2-HG concentration 2, in the absence of D-2-HG, Suppl. Fig. 9e): 1.397 and 1.479 and 1.464
- Emission ratio of 528/485 (LHGFR0N3C [3]; L-2-HG concentration 2, in the presence of D-2-HG, Suppl. Fig. 9e): 1.472 and 1.492 and 1.494
- Emission ratio of 528/485 (LHGFR0N3C [3]; L-2-HG concentration 10, in the absence of D-2-HG, Suppl. Fig. 9e): 1.597 and 1.623 and 1.644
- Emission ratio of 528/485 (LHGFR0N3C [3]; L-2-HG concentration 10, in the presence of D-2-HG, Suppl. Fig. 9e): 1.611 and 1.627 and 1.593
- Emission ratio of 528/485 (LHGFR0N3C [3]; L-2-HG concentration 20, in the absence of 2-KG, Suppl. Fig. 9g): 1.741 and 1.744 and 1.757
- Emission ratio of 528/485 (LHGFR0N3C [3]; L-2-HG concentration 20, in the absence of D-2-HG, Suppl. Fig. 9e): 1.77 and 1.748 and 1.778
- Emission ratio of 528/485 (LHGFR0N3C [3]; L-2-HG concentration 20, in the presence of 2-KG, Suppl. Fig. 9g): 1.682 and 1.691 and 1.6943
- Emission ratio of 528/485 (LHGFR0N3C [3]; L-2-HG concentration 20, in the presence of D-2-HG, Suppl. Fig. 9e): 1.748 and 1.775 and 1.796
- Emission ratio of 528/485 (LHGFR0N3C [3]; L-2-HG concentration 100, in the absence of 2-KG, Suppl. Fig. 9g): 1.995 and 2.046 and 2.033
- Emission ratio of 528/485 (LHGFR0N3C [3]; L-2-HG concentration 100, in the absence of D-2-HG, Suppl. Fig. 9e): 1.9389 and 1.983 and 2.002
- Emission ratio of 528/485 (LHGFR0N3C [3]; L-2-HG concentration 100, in the presence of 2-KG, Suppl. Fig. 9g): 1.979 and 1.983 and 2.015
- Emission ratio of 528/485 (LHGFR0N3C [3]; L-2-HG concentration 100, in the presence of D-2-HG, Suppl. Fig. 9e): 2.01 and 1.942 and 2.017
- Emission ratio of 528/485 (LHGFR0N3C [3]; L-2-HG concentration 200, in the absence of 2-KG, Suppl. Fig. 9g): 2.097 and 2.071 and 2.086
- Emission ratio of 528/485 (LHGFR0N3C [3]; L-2-HG concentration 200, in the absence of D-2-HG, Suppl. Fig. 9e): 2.026 and 2.0171 and 2.117
- Emission ratio of 528/485 (LHGFR0N3C [3]; L-2-HG concentration 200, in the presence of 2-KG, Suppl. Fig. 9g): 2.058 and 2.06 and 2.089
- Emission ratio of 528/485 (LHGFR0N3C [3]; L-2-HG concentration 200, in the presence of D-2-HG, Suppl. Fig. 9e): 2.039 and 1.978 and 2.053
- Emission ratio of 528/485 (LHGFR0N3C [3]; L-2-HG concentration 1000, in the absence of 2-KG, Suppl. Fig. 9g): 2.1941 and 2.174 and 2.177
- Emission ratio of 528/485 (LHGFR0N3C [3]; L-2-HG concentration 1000, in the absence of D-2-HG, Suppl. Fig. 9e): 2.163 and 2.184 and 2.199
- Emission ratio of 528/485 (LHGFR0N3C [3]; L-2-HG concentration 1000, in the presence of 2-KG, Suppl. Fig. 9g): 2.1301 and 2.167 and 2.163
- Emission ratio of 528/485 (LHGFR0N3C [3]; L-2-HG concentration 1000, in the presence of D-2-HG, Suppl. Fig. 9e): 2.202 and 2.174 and 2.19
- Emission ratio of 528/485 (LHGFR0N3C [3]; L-2-HG concentration 2000, in the absence of 2-KG, Suppl. Fig. 9g): 2.149 and 2.166 and 2.182
- Emission ratio of 528/485 (LHGFR0N3C [3]; L-2-HG concentration 2000, in the absence of D-2-HG, Suppl. Fig. 9e): 2.176 and 2.24 and 2.201
- Emission ratio of 528/485 (LHGFR0N3C [3]; L-2-HG concentration 2000, in the presence of 2-KG, Suppl. Fig. 9g): 2.154 and 2.1518 and 2.167
- Emission ratio of 528/485 (LHGFR0N3C [3]; L-2-HG concentration 2000, in the presence of D-2-HG, Suppl. Fig. 9e): 2.195 and 2.175 and 2.2011
- Emission ratio (LHGFR0N3C [3]; Suppl. Fig. 9a, L-2-HG alone or with the compound, three replicates): 2.053 and 2.0953 and 2.06
- Emission ratio of 528/485 (LHGFR0N7C [4]; L-2-HG concentration 0.01, in the absence of 2-KG, Suppl. Fig. 9h): 1.669 and 1.681 and 1.673
- Emission ratio of 528/485 (LHGFR0N7C [4]; L-2-HG concentration 0.01, in the absence of D-2-HG, Suppl. Fig. 9f): 1.668 and 1.665 and 1.6772
- Emission ratio of 528/485 (LHGFR0N7C [4]; L-2-HG concentration 0.01, in the presence of 2-KG, Suppl. Fig. 9h): 1.723
- Emission ratio of 528/485 (LHGFR0N7C [4]; L-2-HG concentration 0.01, in the presence of D-2-HG, Suppl. Fig. 9f): 1.965 and 1.961 and 1.978
- Emission ratio of 528/485 (LHGFR0N7C [4]; L-2-HG concentration 0.1, in the absence of D-2-HG, Suppl. Fig. 9f): 1.677 and 1.673 and 1.693
- Emission ratio of 528/485 (LHGFR0N7C [4]; L-2-HG concentration 0.1, in the presence of D-2-HG, Suppl. Fig. 9f): 1.971 and 1.964 and 1.956
- Emission ratio of 528/485 (LHGFR0N7C [4]; L-2-HG concentration 0.2, in the absence of D-2-HG, Suppl. Fig. 9f): 1.691 and 1.69 and 1.731
- Emission ratio of 528/485 (LHGFR0N7C [4]; L-2-HG concentration 0.2, in the presence of D-2-HG, Suppl. Fig. 9f): 1.971 and 1.94 and 1.9794
- Emission ratio of 528/485 (LHGFR0N7C [4]; L-2-HG concentration 1, in the absence of D-2-HG, Suppl. Fig. 9f): 1.801 and 1.777 and 1.826
- Emission ratio of 528/485 (LHGFR0N7C [4]; L-2-HG concentration 1, in the presence of D-2-HG, Suppl. Fig. 9f): 2.027 and 1.982 and 2.045
- Emission ratio of 528/485 (LHGFR0N7C [4]; L-2-HG concentration 2, in the absence of D-2-HG, Suppl. Fig. 9f): 1.915 and 1.897 and 1.932
- Emission ratio of 528/485 (LHGFR0N7C [4]; L-2-HG concentration 2, in the presence of D-2-HG, Suppl. Fig. 9f): 2.096 and 2.057 and 2.13
- Emission ratio of 528/485 (LHGFR0N7C [4]; L-2-HG concentration 10, in the absence of D-2-HG, Suppl. Fig. 9f): 2.29 and 2.251 and 2.3138
- Emission ratio of 528/485 (LHGFR0N7C [4]; L-2-HG concentration 10, in the presence of D-2-HG, Suppl. Fig. 9f): 2.341 and 2.308 and 2.373
- Emission ratio of 528/485 (LHGFR0N7C [4]; L-2-HG concentration 20, in the absence of 2-KG, Suppl. Fig. 9h): 2.356 (2×) and 2.408
- Emission ratio of 528/485 (LHGFR0N7C [4]; L-2-HG concentration 20, in the absence of D-2-HG, Suppl. Fig. 9f): 2.392 and 2.365 and 2.398
- Emission ratio of 528/485 (LHGFR0N7C [4]; L-2-HG concentration 20, in the presence of 2-KG, Suppl. Fig. 9h): 2.43 and 2.42 and 2.428
- Emission ratio of 528/485 (LHGFR0N7C [4]; L-2-HG concentration 20, in the presence of D-2-HG, Suppl. Fig. 9f): 2.458 and 2.457 and 2.465
- Emission ratio of 528/485 (LHGFR0N7C [4]; L-2-HG concentration 100, in the absence of 2-KG, Suppl. Fig. 9h): 2.538 and 2.5321 and 2.598
